Source: patent US20190055280A1, “TRANSITION METAL-BASED SELECTIVE FUNCTIONALIZATION OF CHALCOGENS IN BIOMOLECULES” (Massachusetts Institute of Technoloy, priority 2014, published 2019)
Like-named read-outs stand apart in the source and are kept apart here. Peptide text beside a SMILES is read from it. * marks the point of attachment. Succinimide(1-Et,3-yl) = CCN1C(=O)CC(*)C1=O; Bn = c1ccc(C*)cc1; X1 = Cc1ccc(*)cc1; Cam = NC(=O)C*

Test: Stability evaluation of peptide P1 cysteine conjugates in the presence of base, acid or an external thiol nucleophile (LC-MS)
Format: physicochemical
Details: for stability toward bases (in words): basic conditions; for stability toward external thiol nucleophiles (in words): exogenous thiol; for stability toward acids (in words): acidic conditions
Procedure: All reported yields were determined by integrating TIC spectra. First, the peak areas for all relevant peptide-containing species on the chromatogram were integrated using Agilent MassHunter software package. Since no peptide-based side products were generated in the experiments, the yields shown in Table 2 were determined as follows: % yield=Spr/Stotal where Spr is the peak area of the product and Stotal is the peak area of combined peptide-containing species (product and starting material). The yield of the stapled peptide (Example 19) was calculated as follows: % yield=k·Spr/Sst where Spr is the peak area of the reaction product, Sst is the peak area of a known amount of purified product, and k equals to the ratio of the known amount of standard divided by the initial amount of starting material. For peptide stability experiments the conversion was calculated as following: % remaining peptide=St/S0 where St is the peak area of the corresponding cysteine conjugate at time t, and S0 is the peak area of the cysteine conjugate at time 0.
Peptide P1 conjugates were pre-dissolved in water in plastic Eppendorfs to afford the 1.11 mM stock solutions used in the stability evaluation experiments. For each experiment, the corresponding cysteine conjugate (1.11 mM; 18 μL) and stability test reagent (2 μL, 50 mM in H2O or 50 mM in 1M Tris, pH 7.4) were combined in a plastic Eppendorf and left at rt for 2 days, followed by 4 days at 37° C. After this time, individual reactions were quenched with a solution of 50% A:50% B (v/v, 200 μL) and the resulting samples were analyzed by LC-MS.
Stability test reagent: K2CO3 (2 μL, 50 mM in H2O); Final conditions before quenching: 1 mM peptide, 5 mM K2CO3; 2 d at rt, then 4 d at 37° C.
Stability test reagent: HCl (2 μL, 1 M in H2O); Final conditions before quenching: 1 mM peptide, 0.1 M HCl; 2 d at rt, then 4 d at 37° C.
Stability test reagent: Glutathione (2 μL, 50 mM in 1 M Tris; pH 7.4); Final conditions before quenching: 1 mM peptide, 5 mM GSH, 0.1M Tris, pH 7.4; 2 d at rt, then 4 d at 37° C.

[1] = 5 mM aqueous K2CO3, 1 mM peptide, 5 mM K2CO3, 2 d at rt, then 4 d at 37° C., read-out: % remaining peptide, base
[2] = 0.1 M Tris buffer with 5 mM glutathione, 1 mM peptide, 5 mM GSH, 0.1M Tris, pH 7.4, 2 d at rt, then 4 d at 37° C., read-out: % remaining peptide, GSH
[3] = 0.1 M aqueous HCl, 1 mM peptide, 0.1 M HCl, 2 d at rt, then 4 d at 37° C., read-out: % remaining peptide, acid

remaining at 144 h, 1 mM [1] [%]	remaining at 144 h, 1 mM [2] [%]	remaining at 144 h, 1 mM [3] [%]	stability toward bases (in words)	stability toward external thiol nucleophiles (in words)	% remaining peptide, base (1 mM peptide, 5 mM K2CO3, 2 d at rt, then 4 d at 37° C.) [%]	stability toward acids (in words)	Structure (SMILES)
0	37	84	decomposed	decomposed			CCN1C(=O)CC(SC[C@H](NC(=O)CNC(=O)[C@H](CC(C)C)NC(=O)[C@H](Cc2ccc(O)cc2)NC(=O)[C@H](Cc2ccccc2)NC(=O)[C@H](CC(N)=O)NC(=O)[C@H](CO)NC(=O)[C@@H](N)CCCNC(=N)N)C(=O)N[C@@H](C)C(=O)NCC(=O)N[C@@H](CC(C)C)C(=O)N[C@@H](C)C(=O)N[C@@H](Cc2c[nH]cn2)C(=O)N[C@@H](CC(=O)O)C(=O)N[C@@H](CCCCN)C(=O)N[C@@H](C)C(=O)N[C@H](C(N)=O)[C@@H](C)O)C1=O (stereo partly shown) (H-RSNFYLGC(Succinimide(1-Et,3-yl))AGLAHDKAT-NH2)
	90	83	stable	stable	83	stable	Cc1ccc(SC[C@H](NC(=O)CNC(=O)[C@H](CC(C)C)NC(=O)[C@H](Cc2ccc(O)cc2)NC(=O)[C@H](Cc2ccccc2)NC(=O)[C@H](CC(N)=O)NC(=O)[C@H](CO)NC(=O)[C@@H](N)CCCNC(=N)N)C(=O)N[C@@H](C)C(=O)NCC(=O)N[C@@H](CC(C)C)C(=O)N[C@@H](C)C(=O)N[C@@H](Cc2c[nH]cn2)C(=O)N[C@@H](CC(=O)O)C(=O)N[C@@H](CCCCN)C(=O)N[C@@H](C)C(=O)N[C@H](C(N)=O)[C@@H](C)O)cc1 (H-RSNFYLGC(X1)AGLAHDKAT-NH2)
84	88	85					CC(C)C[C@H](NC(=O)CNC(=O)[C@H](C)NC(=O)[C@H](CSCc1ccccc1)NC(=O)CNC(=O)[C@H](CC(C)C)NC(=O)[C@H](Cc1ccc(O)cc1)NC(=O)[C@H](Cc1ccccc1)NC(=O)[C@H](CC(N)=O)NC(=O)[C@H](CO)NC(=O)[C@@H](N)CCCNC(=N)N)C(=O)N[C@@H](C)C(=O)N[C@@H](Cc1c[nH]cn1)C(=O)N[C@@H](CC(=O)O)C(=O)N[C@@H](CCCCN)C(=O)N[C@@H](C)C(=O)N[C@H](C(N)=O)[C@@H](C)O (H-RSNFYLGC(Bn)AGLAHDKAT-NH2)
66	85	63	unstable			unstable	CC(C)C[C@H](NC(=O)CNC(=O)[C@H](C)NC(=O)[C@H](CSCC(N)=O)NC(=O)CNC(=O)[C@H](CC(C)C)NC(=O)[C@H](Cc1ccc(O)cc1)NC(=O)[C@H](Cc1ccccc1)NC(=O)[C@H](CC(N)=O)NC(=O)[C@H](CO)NC(=O)[C@@H](N)CCCNC(=N)N)C(=O)N[C@@H](C)C(=O)N[C@@H](Cc1c[nH]cn1)C(=O)N[C@@H](CC(=O)O)C(=O)N[C@@H](CCCCN)C(=O)N[C@@H](C)C(=O)N[C@H](C(N)=O)[C@@H](C)O (H-RSNFYLGC(Cam)AGLAHDKAT-NH2)
